Here are results for 31 molecules from patent US20240360082A1, “SUBSTITUTED PYRIDONE COMPOUNDS USEFUL TO TREAT ORTH[…]” (priority 2021, published 2024).

For one test, the target named is influenza A virus minigenome (PB2, PB1, PA, NP proteins) (UniProt P04665). Format: cell-based. Conditions: read-out: RNP_ Hubei B IC50.
influenza A virus minigenome (PB2, PB1, PA, NP proteins), sequence (P04665 whole entry): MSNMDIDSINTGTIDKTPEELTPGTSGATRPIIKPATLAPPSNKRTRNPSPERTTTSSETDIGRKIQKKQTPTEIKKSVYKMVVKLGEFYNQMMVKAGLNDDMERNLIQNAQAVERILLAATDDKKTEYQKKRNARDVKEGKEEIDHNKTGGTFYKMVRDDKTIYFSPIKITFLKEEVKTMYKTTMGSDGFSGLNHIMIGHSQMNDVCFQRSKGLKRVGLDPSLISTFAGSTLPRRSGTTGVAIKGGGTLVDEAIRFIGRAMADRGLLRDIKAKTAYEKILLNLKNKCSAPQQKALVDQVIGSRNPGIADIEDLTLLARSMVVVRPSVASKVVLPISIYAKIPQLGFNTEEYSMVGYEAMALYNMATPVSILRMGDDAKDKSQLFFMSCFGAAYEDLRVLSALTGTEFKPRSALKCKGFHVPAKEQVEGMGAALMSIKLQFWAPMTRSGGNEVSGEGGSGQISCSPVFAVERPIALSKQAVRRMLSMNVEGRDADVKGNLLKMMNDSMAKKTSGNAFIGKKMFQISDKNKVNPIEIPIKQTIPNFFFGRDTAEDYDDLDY
On to `CN(C)C[C@]1(C)COC[C@@H](COc2ccc(-c3cc(C(N)=O)c(=O)[nH]c3C(F)(F)F)cc2)O1` [Example 424, 5-(4-(((2S,6R)-6-((dimethylamino)methyl)-6-methyl-1,4-dioxan-2-yl)methoxy)phenyl)-2-oxo-6-(trifluoromethyl)-1,2-dihydropyridine-3-carboxamide], for which the IC50 was in the range of 5 to 10 µM.

With `NC(=O)c1cc(-c2ccc(OCC3C[C@@H]4CC[C@H]3O4)cc2)c(C(F)(F)F)[nH]c1=O` (single isomer, unassigned) [Example 314, 5-(4-((7-oxabicyclo[2.2.1]heptan-2-yl)methoxy)phenyl)-2-oxo-6-(trifluoromethyl)-1,2-dihydropyridine-3-carboxamide], the IC50 is 10 to 25 µM.

Take `CC(C)(O)C1COCC(COc2ccc(-c3cc(C(N)=O)c(=O)[nH]c3C(F)(F)F)cc2)O1` (single isomer, unassigned) [Example 354, 5-(4-((6-(2-hydroxypropan-2-yl)-1,4-dioxan-2-yl)methoxy)phenyl)-2-oxo-6-(trifluoromethyl)-1,2-dihydropyridine-3-carboxamide]: the IC50 is 5 to 10 µM.

Regarding `NC(=O)c1cc(-c2ccc(OC[C@H]3COC[C@H](C4CC4)O3)cc2)c(C(F)(F)F)[nH]c1=O` [Example 327, 5-(4-(((2R,6S)-6-cyclopropyl-1,4-dioxan-2-yl)methoxy)phenyl)-2-oxo-6-(trifluoromethyl)-1,2-dihydropyridine-3-carboxamide], the IC50 was in the range of 5 to 10 µM.

With `NC(=O)c1cc(-c2ccc(OCC3COCCO3)c(F)c2)c(C(F)(F)F)[nH]c1=O` (stereo not shown) [Example 239, 5-(4-((1,4-dioxan-2-yl)methoxy)-3-fluorophenyl)-2-oxo-6-(trifluoromethyl)-1,2-dihydropyridine-3-carboxamide], the IC50 was 10 to 25 µM.

For the molecule `NC(=O)c1cc(-c2ccc(OCc3ccon3)cc2)c(C(F)(F)F)[nH]c1=O` [Example 223, 5-(4-(isoxazol-3-ylmethoxy)phenyl)-2-oxo-6-(trifluoromethyl)-1,2-dihydropyridine-3-carboxamide], the IC50 was in the range of 25 to 50 µM.

As for `Cc1ncc(COc2ccc(-c3cc(C(N)=O)c(=O)[nH]c3C(F)(F)F)cc2)s1` [Example 271, 5-(4-((2-methylthiazol-5-yl)methoxy)phenyl)-2-oxo-6-(trifluoromethyl)-1,2-dihydropyridine-3-carboxamide], the IC50 was 25 to 50 µM.

`COCCn1nccc1COc1ccc(-c2cc(C(N)=O)c(=O)[nH]c2C(F)(F)F)cc1` [Example 219, 5-(4-((1-(2-methoxyethyl)-1H-pyrazol-5-yl)methoxy)phenyl)-2-oxo-6-(trifluoromethyl)-1,2-dihydropyridine-3-carboxamide]: the IC50 is 25 to 50 µM.

On to `NC(=O)c1cc(-c2ccc(OCC3COCC(COC4CC(F)(F)C4)O3)cc2)c(C(F)(F)F)[nH]c1=O` (single isomer, unassigned) [Example 367, 5-(4-((6-((3,3-difluorocyclobutoxy)methyl)-1,4-dioxan-2-yl)methoxy)phenyl)-2-oxo-6-(trifluoromethyl)-1,2-dihydropyridine-3-carboxamide], for which the IC50 lay within 5 to 10 µM.

For `COC[C@]1(C)COC[C@@H](COc2ccc(-c3cc(C(N)=O)c(=O)[nH]c3C(F)(F)F)cc2)O1` [Example 406, 5-(4-(((2S,6R)-6-(methoxymethyl)-6-methyl-1,4-dioxan-2-yl)methoxy)phenyl)-2-oxo-6-(trifluoromethyl)-1,2-dihydropyridine-3-carboxamide], the IC50 lay in the range of 5 to 10 µM.

For the molecule `COCC[C@@]1(C)COC[C@@H](COc2ccc(-c3cc(C(N)=O)c(=O)[nH]c3C(F)(F)F)cc2)O1` [Example 426, 5-(4-(((2S,6S)-6-(2-methoxyethyl)-6-methyl-1,4-dioxan-2-yl)methoxy)phenyl)-2-oxo-6-(trifluoromethyl)-1,2-dihydropyridine-3-carboxamide], the IC50 was in the range of 5 to 10 µM.

Consider `CC1COC(COc2ccc(-c3cc(C(N)=O)c(=O)[nH]c3C(F)(F)F)cc2)CO1` (single isomer, unassigned) [Example 323, 5-(4-((5-methyl-1,4-dioxan-2-yl)methoxy)phenyl)-2-oxo-6-(trifluoromethyl)-1,2-dihydropyridine-3-carboxamide], for which the IC50 was 10 to 25 µM.

Consider `NC(=O)c1cc(-c2ccc(OCC3C[C@@H]4CC[C@H]3O4)cc2)c(C(F)(F)F)[nH]c1=O` (single isomer, unassigned) [Example 315, 5-(4-((7-oxabicyclo[2.2.1]heptan-2-yl)methoxy)phenyl)-2-oxo-6-(trifluoromethyl)-1,2-dihydropyridine-3-carboxamide], for which the IC50 was in the range of 10 to 25 µM.

In the case of `CCn1nccc1COc1ccc(-c2cc(C(N)=O)c(=O)[nH]c2C(F)(F)F)cc1` [Example 217, 5-(4-((1-ethyl-1H-pyrazol-5-yl)methoxy)phenyl)-2-oxo-6-(trifluoromethyl)-1,2-dihydropyridine-3-carboxamide], the IC50 fell in the range of 25 to 50 µM.

`Cn1nc(C2CC2)cc1COc1ccc(-c2cc(C(N)=O)c(=O)[nH]c2C(F)(F)F)cc1` [Example 263, 5-(4-((3-cyclopropyl-1-methyl-1H-pyrazol-5-yl)methoxy)phenyl)-2-oxo-6-(trifluoromethyl)-1,2-dihydropyridine-3-carboxamide]: the IC50 lay in the range of 25 to 50 µM.

As for `NC(=O)c1cc(-c2ccc(OCC3COC(CF)CO3)cc2)c(C(F)(F)F)[nH]c1=O` (single isomer, unassigned) [Example 341, 5-(4-((5-(fluoromethyl)-1,4-dioxan-2-yl)methoxy)phenyl)-2-oxo-6-(trifluoromethyl)-1,2-dihydropyridine-3-carboxamide], the IC50 lay in the range of 5 to 10 µM.

As to `COCCOc1ccc(-c2cc(C(N)=O)c(=O)[nH]c2C(F)(F)F)cc1` [Example 254, 5-(4-(2-methoxyethoxy)phenyl)-2-oxo-6-(trifluoromethyl)-1,2-dihydropyridine-3-carboxamide], the IC50 is 25 to 50 µM.

The test is the same for the next values; noted with them: read-out: RNP_Hubei B.
In the case of `NC(=O)c1cc(-c2ccc(OCc3cncnc3)cc2)c(C(F)(F)F)[nH]c1=O` [Example 82, 2-oxo-5-(4-(pyrimidin-5-ylmethoxy)phenyl)-6-(trifluoromethyl)-1,2-dihydropyridine-3-carboxamide], the IC50 lay in the range of 25 to 50 µM.

Regarding `CC(=O)N1CCC(COc2ccc(-c3cc(C(N)=O)c(=O)[nH]c3C(F)(F)F)cc2)CC1` [Example 55, 5-(4-((1-acetylpiperidin-4-yl)methoxy)phenyl)-2-oxo-6-(trifluoromethyl)-1,2-dihydropyridine-3-carboxamide], the IC50 fell in the range of 25 to 50 µM.

Consider `COCOc1ccc(-c2cc(C(N)=O)c(=O)[nH]c2C(F)(F)F)cc1` [Example 13, 5-(4-(methoxymethoxy)phenyl)-2-oxo-6-(trifluoromethyl)-1,2-dihydropyridine-3-carboxamide], for which the IC50 was in the range of 25 to 50 µM.

Consider `NC(=O)c1cc(-c2ccc(OCc3ccccn3)cc2)c(C(F)(F)F)[nH]c1=O` [Example 73, 2-oxo-5-(4-(pyridin-2-ylmethoxy)phenyl)-6-(trifluoromethyl)-1,2-dihydropyridine-3-carboxamide], for which the IC50 lay in the range of 25 to 50 µM.

As to `CC(C)CS(=O)(=O)N1CCCOC(COc2ccc(-c3cc(C(N)=O)c(=O)[nH]c3C(F)(F)F)cc2)C1` (stereo not shown) [Example 198, 5-(4-((4-(isobutylsulfonyl)-1,4-oxazepan-2-yl)methoxy)phenyl)-2-oxo-6-(trifluoromethyl)-1,2-dihydropyridine-3-carboxamide], the IC50 lay in the range of 25 to 50 µM.

With `CS(=O)(=O)c1cccc(COc2ccc(-c3cc(C(N)=O)c(=O)[nH]c3C(F)(F)F)cc2)c1` [Example 75, 5-(4-((3-(methylsulfonyl)benzyl)oxy)phenyl)-2-oxo-6-(trifluoromethyl)-1,2-dihydropyridine-3-carboxamide], the IC50 was in the range of 25 to 50 µM.

`NC(=O)c1cc(-c2ccc(OCc3cccc([N+](=O)[O-])c3)cc2)c(C(F)(F)F)[nH]c1=O` [Example 54, 5-(4-((3-nitrobenzyl)oxy)phenyl)-2-oxo-6-(trifluoromethyl)-1,2-dihydropyridine-3-carboxamide]: the IC50 lay within 10 to 25 µM.

On to `CC(C)Oc1ccc(-c2cc(C(N)=O)c(=O)[nH]c2C(F)(F)F)cc1` [Example 17, 5-(4-isopropoxyphenyl)-2-oxo-6-(trifluoromethyl)-1,2-dihydropyridine-3-carboxamide], for which the IC50 lay in the range of 10 to 25 µM.

In the case of `NC(=O)c1cc(-c2ccc(OCC3CNCCCO3)cc2)c(C(F)(F)F)[nH]c1=O` (stereo not shown) [Example 195, 5-(4-((1,4-oxazepan-2-yl)methoxy)phenyl)-2-oxo-6-(trifluoromethyl)-1,2-dihydropyridine-3-carboxamide], the IC50 is 25 to 50 µM.

On to `NC(=O)c1cc(-c2ccc(OCC3CN(CC4CC4)CCO3)cc2)c(C(F)(F)F)[nH]c1=O` (stereo not shown) [Example 194, 5-(4-((4-(cyclopropylmethyl)morpholin-2-yl)methoxy)phenyl)-2-oxo-6-(trifluoromethyl)-1,2-dihydropyridine-3-carboxamide], for which the IC50 fell in the range of 25 to 50 µM.

On to `NC(=O)c1cc(-c2ccc(CC3(F)CCOCC3)cc2)c(C(F)(F)F)[nH]c1=O` [Example 51, 5-(4-((4-fluorotetrahydro-2H-pyran-4-yl)methyl)phenyl)-2-oxo-6-(trifluoromethyl)-1,2-dihydropyridine-3-carboxamide], for which the IC50 fell in the range of 5 to 10 µM.

Consider `N#Cc1cncc(COc2ccc(-c3cc(C(N)=O)c(=O)[nH]c3C(F)(F)F)cc2)c1` [Example 99, 5-(4-((5-cyanopyridin-3-yl)methoxy)phenyl)-2-oxo-6-(trifluoromethyl)-1,2-dihydropyridine-3-carboxamide], for which the IC50 lay in the range of 25 to 50 µM.

Regarding `NC(=O)c1cc(-c2ccc(OCC3CNCCO3)cc2)c(C(F)(F)F)[nH]c1=O` (stereo not shown) [Example 189, 5-(4-(morpholin-2-ylmethoxy)phenyl)-2-oxo-6-(trifluoromethyl)-1,2-dihydropyridine-3-carboxamide], the IC50 lay in the range of 25 to 50 µM.

In the case of `NC(=O)c1cc(-c2ccc(OCc3ccc(F)c([N+](=O)[O-])c3)cc2)c(C(F)(F)F)[nH]c1=O` [Example 93, 5-(4-((4-fluoro-3-nitrobenzyl)oxy)phenyl)-2-oxo-6-(trifluoromethyl)-1,2-dihydropyridine-3-carboxamide], the IC50 lay within 10 to 25 µM.
